# Results taken from US12077503B2, “Substituted cyclic amides and their use as herbicides” (FMC CORPORATION, priority 2015, dated 2024).
# Key:
# Type in all cases: in vivo
# [1] = test system: corn (Zea mays); assay: Test G Post-Emergence Protocol; settings: Zea mays, post-emergence, 312 h, read-out: Corn damage rating; for plant injury at 15.625 g/ha: 15.625 g ai/ha, evaluated after 13 days (100=total damage to plant; 0=no damage to plant); for plant injury at 62.5 g/ha: 62.5 g ai/ha; for plant injury at 62.5 g/ha / plant injury at 250 g/ha: evaluated after 13 days, 100=total damage to plant, 0=no damage to plant; for plant injury at 250 g/ha: 250 g ai/ha
# Method in brief: (§1)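 Eight days post-sowing, plants received a spray of test compound (acetone/water 50:50, 0.5% Tween 20) at 15.625, 62.5 or 250 g/ha. Glasshouse regime thereafter: 24/16 °C, 14 h light, 65% humidity. Assessment after 13 days on a 0–100 damage scale.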
# [2] = test system: ivy-leaved morning glory (Ipomoea hederacea); assay: Test G Post-Emergence Protocol; settings: Ipomoea, post-emergence, 312 h, read-out: Morningglory, Ivy-leaved damage rating; for pest or weed control at 15.625 g/ha: 15.625 g ai/ha, evaluated after 13 days (100=total damage to plant; 0=no damage to plant); for pest or weed control at 62.5 g/ha: 62.5 g ai/ha; for pest or weed control at 62.5 g/ha / pest or weed control at 250 g/ha: evaluated after 13 days, 100=total damage to plant, 0=no damage to plant; for pest or weed control at 250 g/ha: 250 g ai/ha
# Method in brief: as §1
# [3] = test system: redroot pigweed (Amaranthus retroflexus); assay: Test G Post-Emergence Protocol; settings: Amaranthus retroflexus, post-emergence, 312 h, read-out: Pigweed, Redroot damage rating; for pest or weed control at 15.625 g/ha: 15.625 g ai/ha, evaluated after 13 days (100=total damage to plant; 0=no damage to plant); for pest or weed control at 62.5 g/ha: 62.5 g ai/ha; for pest or weed control at 62.5 g/ha / pest or weed control at 250 g/ha: evaluated after 13 days, 100=total damage to plant, 0=no damage to plant; for pest or weed control at 250 g/ha: 250 g ai/ha
# Method in brief: as §1
# [4] = test system: barnyardgrass (Echinochloa crus-galli); assay: Test G Post-Emergence Protocol; settings: Echinochloa crus-galli, post-emergence, 312 h, read-out: Barnyardgrass damage rating; for pest or weed control at 15.625 g/ha: 15.625 g ai/ha, evaluated after 13 days (100=total damage to plant; 0=no damage to plant); for pest or weed control at 62.5 g/ha: 62.5 g ai/ha; for pest or weed control at 62.5 g/ha / pest or weed control at 250 g/ha: evaluated after 13 days, 100=total damage to plant, 0=no damage to plant; for pest or weed control at 250 g/ha: 250 g ai/ha
# Method in brief: as §1
# [5] = test system: velvetleaf (Abutilon theophrasti); assay: Test G Post-Emergence Protocol; settings: Abutilon theophrasti, post-emergence, 312 h, read-out: Velvetleaf damage rating; for pest or weed control at 15.625 g/ha: 15.625 g ai/ha, evaluated after 13 days (100=total damage to plant; 0=no damage to plant); for pest or weed control at 62.5 g/ha: 62.5 g ai/ha; for pest or weed control at 62.5 g/ha / pest or weed control at 250 g/ha: evaluated after 13 days, 100=total damage to plant, 0=no damage to plant; for pest or weed control at 250 g/ha: 250 g ai/ha
# Method in brief: as §1
# [6] = test system: giant foxtail (Setaria faberi); assay: Test G Post-Emergence Protocol; settings: Setaria faberi, post-emergence, 312 h, read-out: Foxtail, Giant damage rating; for pest or weed control at 15.625 g/ha: 15.625 g ai/ha, evaluated after 13 days (100=total damage to plant; 0=no damage to plant); for pest or weed control at 62.5 g/ha: 62.5 g ai/ha
# Method in brief: as §1
# [7] = test system: corn (Zea mays); assay: Test G Pre-Emergence Protocol; settings: Zea mays, pre-emergence, 312 h, evaluated after 13 days; for plant injury at 15.625 g/ha: 15.625 g ai/ha; for plant injury at 15.625 g/ha / plant injury at 250 g/ha: read-out: Corn damage rating (100=total damage to plant; 0=no damage to plant); for plant injury at 62.5 g/ha: 62.5 g ai/ha, 100=total damage to plant, 0=no damage to plant, read-out: Corn damage rating; for plant injury at 250 g/ha: 250 g ai/ha
# Method in brief: (§2)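 Test compound in 0.5% Tween 20 acetone/water (50:50) was applied at three rates (15.625, 62.5, 250 g/ha) to soil sown one day earlier. After 13 days plants were scored for injury, where 0 means unaffected and 100 means completely damaged.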
# [8] = test system: ivy-leaved morning glory (Ipomoea hederacea); assay: Test G Pre-Emergence Protocol; settings: Ipomoea, pre-emergence, 312 h, evaluated after 13 days; for pest or weed control at 15.625 g/ha: 15.625 g ai/ha; for pest or weed control at 15.625 g/ha / pest or weed control at 250 g/ha: read-out: Morningglory, Ivy-leaved damage rating (100=total damage to plant; 0=no damage to plant); for pest or weed control at 62.5 g/ha: 62.5 g ai/ha, 100=total damage to plant, 0=no damage to plant, read-out: Morningglory, Ivy-leaved damage rating; for pest or weed control at 250 g/ha: 250 g ai/ha
# Method in brief: as §2
# [9] = test system: redroot pigweed (Amaranthus retroflexus); assay: Test G Pre-Emergence Protocol; settings: Amaranthus retroflexus, pre-emergence, 312 h, evaluated after 13 days; for pest or weed control at 15.625 g/ha: 15.625 g ai/ha; for pest or weed control at 15.625 g/ha / pest or weed control at 250 g/ha: read-out: Pigweed, Redroot damage rating (100=total damage to plant; 0=no damage to plant); for pest or weed control at 62.5 g/ha: 62.5 g ai/ha, 100=total damage to plant, 0=no damage to plant, read-out: Pigweed, Redroot damage rating; for pest or weed control at 250 g/ha: 250 g ai/ha
# Method in brief: as §2
# [10] = test system: barnyardgrass (Echinochloa crus-galli); assay: Test G Pre-Emergence Protocol; settings: Echinochloa crus-galli, pre-emergence, 312 h, evaluated after 13 days; for pest or weed control at 15.625 g/ha: 15.625 g ai/ha; for pest or weed control at 15.625 g/ha / pest or weed control at 250 g/ha: read-out: Barnyardgrass damage rating (100=total damage to plant; 0=no damage to plant); for pest or weed control at 62.5 g/ha: 62.5 g ai/ha, 100=total damage to plant, 0=no damage to plant, read-out: Barnyardgrass damage rating; for pest or weed control at 250 g/ha: 250 g ai/ha
# Method in brief: as §2
# [11] = test system: velvetleaf (Abutilon theophrasti); assay: Test G Pre-Emergence Protocol; settings: Abutilon theophrasti, pre-emergence, 312 h, evaluated after 13 days; for pest or weed control at 15.625 g/ha: 15.625 g ai/ha; for pest or weed control at 15.625 g/ha / pest or weed control at 250 g/ha: read-out: Velvetleaf damage rating (100=total damage to plant; 0=no damage to plant); for pest or weed control at 62.5 g/ha: 62.5 g ai/ha, 100=total damage to plant, 0=no damage to plant, read-out: Velvetleaf damage rating; for pest or weed control at 250 g/ha: 250 g ai/ha
# Method in brief: as §2
# [12] = test system: giant foxtail (Setaria faberi); assay: Test G Pre-Emergence Protocol; settings: Setaria faberi, pre-emergence, 312 h, evaluated after 13 days; for pest or weed control at 15.625 g/ha: 15.625 g ai/ha; for pest or weed control at 15.625 g/ha / pest or weed control at 250 g/ha: read-out: Foxtail, Giant damage rating (100=total damage to plant; 0=no damage to plant); for pest or weed control at 62.5 g/ha: 62.5 g ai/ha, 100=total damage to plant, 0=no damage to plant, read-out: Foxtail, Giant damage rating; for pest or weed control at 250 g/ha: 250 g ai/ha
# Method in brief: as §2
# [13] = evaluated after 13 days, 100=total damage to plant, 0=no damage to plant
structure (smiles),measurement,setting,value
COc1c(C)cc(C2CN(C)C(=O)C2C(=O)Nc2cccc(F)c2F)cc1C (centres unmarked) [Compound 1707],plant injury at 15.625 g/ha,[1],60%
same,plant injury at 62.5 g/ha,[1],70%
same,plant injury at 250 g/ha,[1],80%
same,pest or weed control at 15.625 g/ha,[2],40%
same,pest or weed control at 62.5 g/ha,[2],40%
same,pest or weed control at 250 g/ha,[2],70%
same,pest or weed control at 15.625 g/ha,[3],0%
same,pest or weed control at 62.5 g/ha,[3],0%
same,pest or weed control at 250 g/ha,[3],0%
same,pest or weed control at 15.625 g/ha,[4],70%
same,pest or weed control at 62.5 g/ha,[4],70%
same,pest or weed control at 250 g/ha,[4],80%
same,pest or weed control at 15.625 g/ha,[5],0%
same,pest or weed control at 62.5 g/ha,[5],20%
same,pest or weed control at 250 g/ha,[5],30%
same,pest or weed control at 15.625 g/ha,[6],80%
same,pest or weed control at 62.5 g/ha,[6]; [13],80%
same,plant injury at 15.625 g/ha,[7],20%
same,plant injury at 62.5 g/ha,[7],80%
same,plant injury at 250 g/ha,[7],80%
same,pest or weed control at 15.625 g/ha,[8],0%
same,pest or weed control at 62.5 g/ha,[8],10%
same,pest or weed control at 250 g/ha,[8],30%
same,pest or weed control at 15.625 g/ha,[9],20%
same,pest or weed control at 62.5 g/ha,[9],20%
same,pest or weed control at 250 g/ha,[9],40%
same,pest or weed control at 15.625 g/ha,[10],70%
same,pest or weed control at 62.5 g/ha,[10],80%
same,pest or weed control at 250 g/ha,[10],90%
same,pest or weed control at 15.625 g/ha,[11],10%
same,pest or weed control at 62.5 g/ha,[11],10%
same,pest or weed control at 250 g/ha,[11],60%
same,pest or weed control at 15.625 g/ha,[12],80%
same,pest or weed control at 62.5 g/ha,[12],90%
same,pest or weed control at 250 g/ha,[12],90%
COc1cc(C2CN(C)C(=O)C2C(=O)Nc2cccc(F)c2F)cc(C)c1C (centres unmarked) [Compound 1713],plant injury at 15.625 g/ha,[1],0%
same,plant injury at 62.5 g/ha,[1],50%
same,plant injury at 250 g/ha,[1],80%
same,pest or weed control at 15.625 g/ha,[2],20%
same,pest or weed control at 62.5 g/ha,[2],60%
same,pest or weed control at 250 g/ha,[2],70%
same,pest or weed control at 15.625 g/ha,[3],0%
same,pest or weed control at 62.5 g/ha,[3],0%
same,pest or weed control at 250 g/ha,[3],0%
same,pest or weed control at 15.625 g/ha,[4],10%
same,pest or weed control at 62.5 g/ha,[4],80%
same,pest or weed control at 250 g/ha,[4],80%
same,pest or weed control at 15.625 g/ha,[5],0%
same,pest or weed control at 62.5 g/ha,[5],0%
same,pest or weed control at 250 g/ha,[5],20%
same,pest or weed control at 15.625 g/ha,[6],60%
same,pest or weed control at 62.5 g/ha,[6]; [13],80%
same,pest or weed control at 250 g/ha,"[6]; 250 g ai/ha, evaluated after 13 days, 100=total damage to plant, 0=no damage to plant",80%
same,plant injury at 15.625 g/ha,[7],10%
same,plant injury at 62.5 g/ha,[7],20%
same,plant injury at 250 g/ha,[7],90%
same,pest or weed control at 15.625 g/ha,[8],0%
same,pest or weed control at 62.5 g/ha,[8],0%
same,pest or weed control at 250 g/ha,[8],0%
same,pest or weed control at 15.625 g/ha,[9],0%
same,pest or weed control at 62.5 g/ha,[9],0%
same,pest or weed control at 250 g/ha,[9],0%
same,pest or weed control at 15.625 g/ha,[10],30%
same,pest or weed control at 62.5 g/ha,[10],70%
same,pest or weed control at 250 g/ha,[10],90%
same,pest or weed control at 15.625 g/ha,[11],0%
same,pest or weed control at 62.5 g/ha,[11],0%
same,pest or weed control at 250 g/ha,[11],0%
same,pest or weed control at 15.625 g/ha,[12],50%
same,pest or weed control at 62.5 g/ha,[12],70%
same,pest or weed control at 250 g/ha,[12],90%
